Experimental data published in ChEMBL document CHEMBL1201862, “PubChem BioAssay data set” (2004).
Active and inactive are the calls of the source.

Assays:
[1] = target: T1, Carboxy-terminal domain RNA polymerase II polypeptide A small phosphatase 1 (Homo sapiens, UniProt Q9GZU7); assay: inhibitors of CTDSP1, concentration-response testing, biochemical assay, absorbance-based, actives from ultra-high-throughput screening (AID 540297); type: functional
T1 sequence (Q9GZU7 whole entry): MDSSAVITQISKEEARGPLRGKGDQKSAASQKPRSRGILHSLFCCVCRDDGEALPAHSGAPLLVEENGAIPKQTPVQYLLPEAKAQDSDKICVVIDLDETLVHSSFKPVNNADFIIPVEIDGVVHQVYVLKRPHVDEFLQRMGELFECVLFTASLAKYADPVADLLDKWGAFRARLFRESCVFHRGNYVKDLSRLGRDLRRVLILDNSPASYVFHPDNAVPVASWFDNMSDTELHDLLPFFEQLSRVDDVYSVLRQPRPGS

[2] = HepG2 cell cytotoxicity, dose response, cytotoxicity control for Shn3 inhibitor project, CellTiter-Glo, cherry-picked (AID 624134); type: functional, cell-based
[3] = control 3'UTR Renilla luciferase suppression, dose response, counter-screen for Shn3 inhibitor project, cell-based, Clone20-Shn3RL, cherry-picked (AID 624133); type: functional
[4] = Shn3 3'UTR reporter inhibitors, dose response, cell-based, Clone20 osteoblasts, firefly luciferase, cherry-picked (AID 624132); type: functional;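 note: firefly luciferase luminescence from reporter carrying the Shn3 3'UTR in osteoblasts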
[5] = tested on: P388/ADR; assay: cells; type: functional; details: Mus musculus
[6] = tested on: SN12K1; assay: cells; type: functional; details: Homo sapiens
[7] = tested on: P388; assay: cells; type: functional; details: Mus musculus
[8] = P. falciparum ATP4 D1247Y mutant growth inhibitors, dose response, NITD609-resistant line, SYBR Green, dry powder (AID 1159571); type: functional, cell-based;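 note: parasites synchronized at ring stage by sorbitol before testing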
[9] = P. falciparum Dd2 growth inhibitors, dose response, SYBR Green, dry powder samples (AID 1159566); type: functional, cell-based;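 note: potency for growth inhibition with lower SYBR green DNA signal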
[10] = P. falciparum 3D7-ScDHODH growth inhibitors, dose response, SYBR Green, dry powder samples (AID 1159570); type: functional, cell-based;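 note: parasite growth measured after 72 hours of compound exposure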
[11] = P. falciparum Dd2 growth inhibitors, dose response, SYBR Green, cherry-picked samples (AID 1159567); type: functional, cell-based
[12] = cytotoxicity in HEK-293T cells, dose response, cytotoxicity control for TCR NF-kB inhibitor project, luminescence, T-cell screen hits (AID 489026); type: functional, cell-based;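 note: cells exposed to compound about 14 hours before the viability readout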
[13] = target: T2, Heat shock factor protein 1 (Mus musculus, UniProt P38532); assay: HSF1 potentiators in luciferase reporter cells, confirmation, cell-based, NIH3T3, luminescence, dose retest (AID 435004); type: functional;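 note: stress induced by proteasome inhibitor MG132 added 30 min after compound; luciferase reporter driven by HSF1 response element in NIH3T3 cells; actives raise luminescence as potentiators of the MG132 stress response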
T2 sequence (P38532 whole entry): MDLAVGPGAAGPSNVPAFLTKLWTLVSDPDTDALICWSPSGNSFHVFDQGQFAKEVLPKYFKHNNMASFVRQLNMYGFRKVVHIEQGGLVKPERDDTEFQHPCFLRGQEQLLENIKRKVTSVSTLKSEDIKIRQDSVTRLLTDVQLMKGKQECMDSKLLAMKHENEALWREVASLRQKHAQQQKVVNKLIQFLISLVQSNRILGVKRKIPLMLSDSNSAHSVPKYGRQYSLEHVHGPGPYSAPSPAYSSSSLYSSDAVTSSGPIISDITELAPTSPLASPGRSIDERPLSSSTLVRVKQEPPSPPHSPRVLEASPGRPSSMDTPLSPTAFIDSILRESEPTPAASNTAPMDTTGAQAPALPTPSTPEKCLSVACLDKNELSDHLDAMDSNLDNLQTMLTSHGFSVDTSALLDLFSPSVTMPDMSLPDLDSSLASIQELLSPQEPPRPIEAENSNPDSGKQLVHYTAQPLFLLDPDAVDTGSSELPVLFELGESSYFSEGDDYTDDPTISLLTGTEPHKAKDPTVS

[14] = target: Glucose-6-phosphate 1-dehydrogenase (Homo sapiens, UniProt P11413); assay: human G6PD enzyme inhibitors, dose response, selectivity assay for P. falciparum G6PD inhibitor project, biochemical, fluorescence (AID 504792); type: functional
[15] = target: Large T antigen (Simian virus 40, UniProt P03070); type: functional, Betapolyomavirus macacae;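 note: Confirmatory-stage PubChem screen for compounds that inhibit SV40 T antigen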
[16] = target: Paired box protein Pax-8 (Homo sapiens, UniProt Q06710); assay: inhibitors of PAX8-driven TPO luciferase reporter, dose response, RMG-I cells, cherry-pick (AID 687027); type: functional, cell-based;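 note: luciferase reporter driven by Pax8 target thyroperoxidase promoter measured by SteadyGlo luminescence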
[17] = Luminescence Cell-Based Dose Response HTS to Identify Inhibitors of 5'UTR Stem-Loop Driven Prion Protein mRNA Translation in H4 Neuroglioblastoma Cells. [Related pubchem assays: 1827 (Project Summary), 1813 (Primary HTS)]; type: functional
[18] = tested on: INS1; assay: beta cell apoptosis inhibitors, cytokine rescue, dose response, luminescence, retest (AID 449756); type: functional, cell-based; details: Rattus norvegicus;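 note: cell death triggered by IL-1 beta plus TNF-alpha plus IFN-gamma mixture; protective hits raise ATP signal compared with cytokine alone wells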
[19] = microbe, parasite or virus in culture; type: functional; details: Mycobacterium tuberculosis
[20] = inhibitors of SNCA 5'UTR-driven reporter translation, confirmation, H4 neuroglioma cells, luminescence (AID 1988); type: functional, cell-based
[21] = inhibitors of firefly luciferase expression or activity, dose response, H4 neuroglioma cells, luminescence (AID 1990); type: functional, cell-based

Sequence of Glucose-6-phosphate 1-dehydrogenase (P11413 whole entry): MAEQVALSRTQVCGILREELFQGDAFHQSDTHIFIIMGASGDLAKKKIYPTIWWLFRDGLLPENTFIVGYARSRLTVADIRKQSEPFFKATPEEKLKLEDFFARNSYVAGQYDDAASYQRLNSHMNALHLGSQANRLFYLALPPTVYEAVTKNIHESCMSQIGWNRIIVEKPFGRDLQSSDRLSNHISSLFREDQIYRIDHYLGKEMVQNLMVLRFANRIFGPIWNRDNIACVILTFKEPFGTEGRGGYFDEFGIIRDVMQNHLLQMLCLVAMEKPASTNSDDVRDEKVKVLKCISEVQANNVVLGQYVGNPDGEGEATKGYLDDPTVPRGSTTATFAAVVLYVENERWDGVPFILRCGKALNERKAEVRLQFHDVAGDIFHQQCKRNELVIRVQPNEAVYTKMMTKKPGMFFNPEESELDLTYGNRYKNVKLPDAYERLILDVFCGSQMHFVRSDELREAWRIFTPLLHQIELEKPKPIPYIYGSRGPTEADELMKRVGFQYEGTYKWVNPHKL
Sequence of Large T antigen (P03070 whole entry): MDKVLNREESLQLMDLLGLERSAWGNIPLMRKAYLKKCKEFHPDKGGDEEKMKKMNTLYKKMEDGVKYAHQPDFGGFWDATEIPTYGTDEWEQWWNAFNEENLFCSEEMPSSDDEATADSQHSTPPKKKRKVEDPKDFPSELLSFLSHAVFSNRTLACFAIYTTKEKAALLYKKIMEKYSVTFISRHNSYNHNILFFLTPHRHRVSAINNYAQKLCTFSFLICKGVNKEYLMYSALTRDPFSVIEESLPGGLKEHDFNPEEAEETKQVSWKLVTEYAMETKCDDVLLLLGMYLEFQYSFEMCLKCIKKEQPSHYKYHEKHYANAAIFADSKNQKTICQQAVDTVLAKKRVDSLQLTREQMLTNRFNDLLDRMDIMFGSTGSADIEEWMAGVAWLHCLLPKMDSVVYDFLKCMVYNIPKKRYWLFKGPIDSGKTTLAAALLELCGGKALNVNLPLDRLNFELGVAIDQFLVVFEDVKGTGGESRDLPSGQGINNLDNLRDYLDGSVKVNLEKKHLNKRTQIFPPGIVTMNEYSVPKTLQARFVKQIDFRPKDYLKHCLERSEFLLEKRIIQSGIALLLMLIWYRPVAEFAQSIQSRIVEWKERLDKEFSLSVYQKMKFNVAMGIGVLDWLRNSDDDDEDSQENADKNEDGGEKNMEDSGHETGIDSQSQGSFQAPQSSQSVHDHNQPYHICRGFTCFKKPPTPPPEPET
Sequence of Paired box protein Pax-8 (Q06710 whole entry): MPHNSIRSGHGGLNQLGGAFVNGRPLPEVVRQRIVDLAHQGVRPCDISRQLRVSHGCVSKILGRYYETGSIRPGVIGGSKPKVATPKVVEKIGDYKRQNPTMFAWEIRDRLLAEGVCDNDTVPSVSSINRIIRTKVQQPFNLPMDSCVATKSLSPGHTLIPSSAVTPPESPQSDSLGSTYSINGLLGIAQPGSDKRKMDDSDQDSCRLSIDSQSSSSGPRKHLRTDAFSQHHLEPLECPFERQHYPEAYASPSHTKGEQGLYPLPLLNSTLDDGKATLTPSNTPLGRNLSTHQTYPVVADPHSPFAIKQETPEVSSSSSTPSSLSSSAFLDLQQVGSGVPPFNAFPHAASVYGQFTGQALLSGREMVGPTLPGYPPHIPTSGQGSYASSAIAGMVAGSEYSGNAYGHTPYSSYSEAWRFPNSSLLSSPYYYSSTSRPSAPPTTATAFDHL

SMILES	GI50 [5]	GI50 [6]	GI50 [7]	other results
O=C(CCN1C(=O)S/C(=C\c2ccc(Cl)cc2)C1=O)Nc1ccc(C(=O)O)cc1	–	–	–	IC50 [1]: 6.17 µM (active)
CN(Cc1nccn1C)C(=O)c1cc(COc2ccc3ncccc3c2)on1	–	–	–	AC50 [2]: > 70 µM (inactive); AC50 [3]: 36.8 µM (active); AC50 [4]: 6.97 µM (active)
CC(C)CCCCCCCCCCCCC(=O)NCC(=O)NC1C(O)C(O)C(Nc2[nH]cnc3ncnc2-3)OC1C(O)CO (stereo not drawn)	0.00128 µM (active)	0.00531 µM (active)	0.000211 µM (active)	–
CCC/C=C/C=C/C(=O)OC1/C(=C/C(=O)OC)CC2CC(C(C)O)OC(=O)CC(O)CC3CC(OC(C)=O)C(C)(C)C(O)(CC4C/C(=C/C(=O)OC)CC(/C=C/C(C)(C)C1(O)O2)O4)O3 (stereo not drawn)	–	–	2.16 µM (inactive)	–
C=C1C(=O)OC2C=C(C)CC3C=C(CCC=C(C)CCC12)C(=O)O3 (stereo not drawn)	22.1 µM (inactive)	58.3 µM (inactive)	12.4 µM (inactive)	–
CC(C)(C)OC(=O)NC1CCC(C(C)(C)C)CC1 (stereo not drawn)	30 µM (inactive)	45.4 µM (inactive)	15.9 µM (inactive)	–
CC(=O)OC1C(O)C(C)OC(OC(=O)C2CCC3C(C2)OC2(CC(OC(=O)/C=C/c4ccccc4)C(C)CO2)C32CO2)C1OC1OC(C)C(O)C(O)C1O (stereo not drawn)	20.9 µM (inactive)	0.0348 µM (active)	0.306 µM (active)	–
C#CC[N+](CCO)(CCO)CCCCCCCCCCCCCCCCCC	8.55 µM (inactive)	13 µM (inactive)	1.08 µM (active)	–
CC(C)(C)[S@@+]([O-])N1Cc2cc(C(=O)NCCc3ccncc3)nc(-c3cccc(-c4ccccc4)c3)c2[C@H]1CCO	–	–	–	AC50 [8]: 0.537 µM (active); AC50 [9]: 0.366 µM (active); AC50 [10]: 1.08 µM (active); AC50 [11]: 0.414 µM (active)
CC1OC(CO)(n2cnc3c(N)ncnc32)C(O)C1O (stereo not drawn)	> 100 µM (inactive)	> 100 µM (inactive)	> 100 µM (inactive)	–
C[C@]12CC[C@@H]3c4cc(O)c(O)cc4CC[C@H]3[C@@H]1CC[C@@H]2O	–	–	–	IC50 [12]: > 80 µM (inactive); EC50 [13]: 4.07 µM (active); IC50 [14]: 72.5 µM (inactive); IC50 [15]: > 100 µM (active)
CCCCCCCCn1c2c(c(=N)c3c1CCC3)CCCC2	–	–	–	AC50 [16]: 2.36 µM (active); IC50 [12]: 73.8 µM (inactive); EC50 [17]: 32.4 µM (active); AC50 [18]: < 0.195 µM (active); CC50 [19]: 32.7 µM (active); EC50 [20]: 7.18 µM (active); EC50 [21]: 4.15 µM (active)
